“And” between values parts separate entries of the source, which are not always exact repeats. Equal values may be shown once.

The test system of one data set is STHdhQ7 cells. Put plainly: Live cell imaging of iGP-1 fluorescence (ability to cross cellular membranes). The format is cell-based. The note with it: 100 µM; intrinsic fluorescence in live cells. As to the method:
The ability of iGP-1 to cross cellular membranes was evaluated in STHdhQ7 cells cultured at 33°C as described. Cells were seeded on collagen-coated, Lab-Tek chambered coverglass (Nunc) 48 h before use. Prior to imaging, cells were cultured for 45 min with 65 nM LysoTracker Red ±250 nM bafilomycin A1. Medium was then replaced with imaging buffer (120 mM NaCl, 3.5 mM KCl, 0.4 mM KH2PO4, 20 mM TES, 5 mM NaHCO3, 1.2 mM Na2SO4, 1.5 mM CaCl2, 0.5 mM MgCl2, 2 mM Glucose, and 0.2% BSA, pH 7.4) containing DMSO, 250 nM bafilomycin A1 or 100 µM iGP-1. Cells were imaged on a Nikon Eclipse Ti-PFS inverted microscope equipped with a Cascade 512B camera (Photometrics, Tucson, AZ), a Plan Fluor 100X/1.3 oil objective, an LB-LS17 Xe-arc light source (attenuated), 10–3 excitation and emission filter wheels (Sutter Instruments, Novato, CA), and an MS-2000 linear encoded motorized stage (ASI, Eugene, OR). The filter sets, given as excitation, dichroic mirror, emission in nm/bandwidth, were, for iGP-1 (1 s exposure), 340/26, 409, 460/80 and for LysoTracker Red (100 ms exposure), 543/22, 562, 588/21 (all from Semrock, Rochester, NY). Image acquisition was controlled by NIS Elements 4.0 (Nikon, Melville, NY). Images of cell-free wells containing buffer with DMSO or iGP-1 were used for background subtraction in Image Analyst MKII (Novato, CA).

For data set [1], the system named is skeletal muscle mitochondria. Put plainly: Mitochondrial respiration (Seahorse XF24) in plate-attached skeletal muscle mitochondria. The format is biochemical, rat. As to the method:
The effects of small-molecule inhibitors on respiration were tested in plate-attached skeletal muscle mitochondria using a Seahorse XF24 Analyzer according to published protocols. Briefly, mitochondria (2 or 4 µg protein) were attached to Seahorse assay plates by centrifugation in a mannitol and sucrose-based medium (Seahorse MAS buffer) containing 0.3% (w/v) BSA without or with 250 nM free calcium at pH 7.0. […] Compounds were added in these media just prior to loading the assay plate into the Seahorse instrument. Additions were made to set respiration in basal state 2 (substrate only), phosphorylating state 3 (5 mM ADP), non-phosphorylating state 4o (0.5 ug ⋅ mL^−1 oligomycin), and to reveal the non-mitochondrial rate (2 µM myxothiazol and 2.5 µM antimycin A). Each concentration of compound was tested in at least two wells on each plate. At least three biological replicates of each titration in each substrate condition were performed.

A further data set has as its target T1, mGPDH (Rattus norvegicus, UniProt P35571).
T1 construct: from tissue; host or cells: skeletal muscle mitochondria
T1 sequence (P35571 43-727): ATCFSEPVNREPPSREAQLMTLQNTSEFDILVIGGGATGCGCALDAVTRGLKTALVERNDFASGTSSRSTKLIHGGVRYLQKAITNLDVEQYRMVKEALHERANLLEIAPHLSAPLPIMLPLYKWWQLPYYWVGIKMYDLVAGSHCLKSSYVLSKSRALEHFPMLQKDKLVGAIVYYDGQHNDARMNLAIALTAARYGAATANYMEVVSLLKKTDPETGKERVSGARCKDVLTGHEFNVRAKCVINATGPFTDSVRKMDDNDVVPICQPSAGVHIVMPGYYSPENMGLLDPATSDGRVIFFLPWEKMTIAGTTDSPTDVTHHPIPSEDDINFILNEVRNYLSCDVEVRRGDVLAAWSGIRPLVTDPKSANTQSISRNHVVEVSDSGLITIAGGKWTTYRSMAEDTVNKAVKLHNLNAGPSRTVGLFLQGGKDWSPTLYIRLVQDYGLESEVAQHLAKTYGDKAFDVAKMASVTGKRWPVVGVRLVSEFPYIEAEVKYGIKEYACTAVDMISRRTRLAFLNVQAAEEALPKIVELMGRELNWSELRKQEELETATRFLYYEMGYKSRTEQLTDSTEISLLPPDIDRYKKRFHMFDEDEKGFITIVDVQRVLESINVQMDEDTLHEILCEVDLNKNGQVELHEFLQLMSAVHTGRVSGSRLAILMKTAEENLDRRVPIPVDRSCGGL
The experiment in a line: mGPDH enzymatic activity (DCPIP-linked reduction by glycerol phosphate) in frozen-thawed skeletal muscle mitochondria. The format is biochemical. As to the method:
Activity of mGPDH in frozen-thawed skeletal muscle mitochondria was measured as 2,6-dichlorophenolindophenol (DCPIP)-linked reduction by glycerol phosphate as described previously in the presence of 1 µM free calcium. Linear rates of change in absorbance (λ = 600 nm) were measured on the PHERAstar microplate reader and converted to rates of DCPIP reduction using an extinction coefficient of 21 mM^−1 ⋅ cm^−1 and a calculated pathlength of 0.6 cm. Kinetic parameters and inhibitor constants were determined by co-varying glycerol phosphate and novel inhibitors according to recommended procedures and calculated for each data set using GraphPad Prism. Vmax and Km were determined using hyperbolic curves fit to the Michaelis-Menten equation: rate = (Vmax ⋅ [substrate]) ⋅ (K m+[substrate])^ −1. Hill Slope and IC50 were determined using unconstrained, sigmoidal dose-response curve fits of % remaining activity against concentration of iGP. K ic and K iu were determined using plots of rate^−1 vs iGP and GP ⋅ rate^−1 vs iGP, respectively. Linear regression analysis yielded an average x-coordinate at which the best-fit lines intersect. These x-coordinates correspond to -K ic and -K iu in their respective plots. The apparent Vmax of mGPDH is dependent upon the concentration of DCPIP used, [38]. Therefore, to determine the maximal activity of mGPDH in isolated synaptosomes, DCPIP was replaced by 1 mM potassium ferricyanide and linear rates of change in absorbance (λ = 420 nm) were converted to rates of ferricyanide reduction using an extinction coefficient of 1.04 mM^−1 ⋅ cm^−1 and a calculated pathlength of 0.6 cm.

By IC50 is commonly meant the midpoint of a concentration-inhibition curve. Regarding `O=C(O)CCC(=O)Nc1ccc(-c2nc3ccccc3[nH]2)cc1` [iGP-1], in the data set with STHdhQ7 cells, the “cell permeability” value is on record as “readily crosses cellular membranes”. In addition, the “effect on glycerol phosphate-dependent respiration” value in data set [1] (25 and 80 µM, 16.7 mM glycerol phosphate, rotenone, 250 nM free calcium) is recorded as “significantly decreased”. Further, the “effect on respiration on other substrates” value in data set [1] (pyruvate and malate, glutamate and malate, succinate and rotenone) is listed as “without altering”. The “mGPDH Activity Hill Slope” value on mGPDH (1 µM free calcium) is 0.92 and 0.92±0.08. At mGPDH (1 µM free calcium, Fig. 9A), the IC50 came out at 6.3 ± 0.7 µM. The “effect on mGPDH enzymatic activity” value at mGPDH (all concentrations tested, Fig. 5) is “significantly inhibited”. The “K iu (uncompetitive inhibitor dissociation constant)” value at mGPDH (co-varying glycerol phosphate and inhibitor) was 14.6 ± 1.5 µM. The Ki at mGPDH (co-varying glycerol phosphate and inhibitor, read-out: K ic (competitive inhibitor dissociation constant)) is 9.5 ± 1.1 µM.
